Data as given in patent US20100040667A1, “METHOD OF TREATING BONE CANCER” (ED. GEISTLICH SOEHNE AG FUER CHEMISCHE INDUSTRIE, priority 2006, published 2010).

Legend:
[1] = Solubility of taurolidine in water; type: physicochemical; conditions: room temperature
Description: The preferred active substances are methylol transfer agents such as taurolidine, taurultam, mixtures thereof or equilibriums thereof. Where taurolidine and/or taurultam is used, its concentration in the aqueous solution absorbed in the gel is preferably 0.5% to 5% by weight, e.g. about 1 to 4%. Where the gel is in the form of a granulate, 2-4% by weight taurolidine and/or taurultam is preferred, more preferably, 4% taurolidine and/or taurultam by weight. Taurolidine is only about 2-3% soluble in water at room temperature, so that at higher concentrations, some material will be present as a suspension of, for example, fine taurolidine crystals.

[2] = tested on: osteosarcoma cell lines SAOS-2 (HTB-85), U2OS (HTB-96), HOS, 143B, LM5, Hu09 WT, Hu09H3, Hu09 L13, MG-63 and MG-63 M8; assay: Taurolidine tested against 10 osteosarcoma cell lines; type: cell-based
Protocol: Taurolidine was tested against 10 oestosarcoma cell lines at concentrations of 50, 100 and 200 uM taurolidine. The cell lines were SAOS-2 (HTB-85), U2OS (HTB-96), HOS, 143B, LM5, Hu09 WT, Hu09H3, Hu09 L13, MG-63 and MG-63 M8.

O=S1(=O)CCN(CN2CCS(=O)(=O)NC2)CN1 [Taurolidine, taurolidine]
soluble in water [1]: 2-3%
apoptotic cells ([2]; 50, 100 and 200 uM taurolidine): dose-dependent increase in apoptic cells
inhibition of osteosarcoma cell lines ([2]; 50, 100 and 200 uM taurolidine, 10 cell lines): inhibited all osteosarcoma cell lines tested
mechanism of apoptosis ([2]; osteosarcoma cell lines): caspase-dependent
